{"source": "ChEMBL document CHEMBL1144462", "about": "“Spread in an Italian hospital of a clonal Acinetobacter baumannii strain producing the TEM-92 extended-spectrum beta-lactamase” (2007)", "key": {"Acinetobacter baumannii [1]": {"tested_on": "Acinetobacter baumannii", "assay": "Antibacterial activity against TEM92 ESBL-producing Acinetobacter baumannii by CLSI method", "format": "functional"}, "Acinetobacter baumannii [2]": {"tested_on": "Acinetobacter baumannii", "assay": "Antibacterial activity against Acinetobacter baumannii by CLSI method", "format": "functional"}}}
{"compound": "NCC[C@H](O)C(=O)N[C@@H]1C[C@H](N)[C@@H](O[C@H]2O[C@H](CN)[C@@H](O)[C@H](O)[C@H]2O)[C@H](O)[C@H]1O[C@H]1O[C@H](CO)[C@@H](O)[C@H](N)[C@H]1O", "note": "[AMIKACIN]", "values": [{"measurement": "MIC", "setting": "Acinetobacter baumannii [1]", "value": "≤ 8", "unit": "µg/mL"}]}
{"compound": "CO/N=C(\\C(=O)N[C@@H]1C(=O)N2C(C(=O)O)=C(COC(C)=O)CS[C@H]12)c1csc(N)n1", "note": "[CEFOTAXIME]", "values": [{"measurement": "MIC", "setting": "Acinetobacter baumannii [2]", "value": "≥ 16", "unit": "µg/mL"}, {"measurement": "MIC", "setting": "Acinetobacter baumannii [1]", "value": "> 128", "unit": "µg/mL"}]}
{"compound": "CC(C)(O/N=C(\\C(=O)N[C@@H]1C(=O)N2C(C(=O)[O-])=C(C[n+]3ccccc3)CS[C@H]12)c1csc(N)n1)C(=O)O", "note": "[CEFTAZIDIME]", "values": [{"measurement": "MIC", "setting": "Acinetobacter baumannii [2]", "value": "≥ 16", "unit": "µg/mL"}, {"measurement": "MIC", "setting": "Acinetobacter baumannii [1]", "value": "> 128", "unit": "µg/mL"}]}
{"compound": "CO/N=C(\\C(=O)N[C@@H]1C(=O)N2C(C(=O)O)=C(CSc3nc(=O)c(O)nn3C)CS[C@H]12)c1csc(N)n1", "note": "[CEFTRIAXONE]", "values": [{"measurement": "MIC", "setting": "Acinetobacter baumannii [1]", "value": "> 128", "unit": "µg/mL"}]}
{"compound": "C[C@@H](O)[C@H]1C(=O)N2C(C(=O)O)=C(SCCNC=N)C[C@H]12", "note": "[IMIPENEM ANHYDROUS]", "values": [{"measurement": "MIC", "setting": "Acinetobacter baumannii [2]", "value": "≥ 8", "unit": "µg/mL"}, {"measurement": "MIC", "setting": "Acinetobacter baumannii [1]", "value": "≤ 1", "unit": "µg/mL"}]}
{"compound": "C[C@H]1COc2c(N3CCN(C)CC3)c(F)cc3c(=O)c(C(=O)O)cn1c23.C[C@H]1COc2c(N3CCN(C)CC3)c(F)cc3c(=O)c(C(=O)O)cn1c23.O", "note": "[LEVOFLOXACIN]", "values": [{"measurement": "MIC", "setting": "Acinetobacter baumannii [1]", "value": "> 32", "unit": "µg/mL"}]}
{"compound": "C[C@@H](O)[C@H]1C(=O)N2C(C(=O)O)=C(S[C@@H]3CN[C@H](C(=O)N(C)C)C3)[C@H](C)[C@H]12", "note": "[MEROPENEM]", "values": [{"measurement": "MIC", "setting": "Acinetobacter baumannii [1]", "value": "≤ 2", "unit": "µg/mL"}]}
{"compound": "CCN1CCN(C(=O)N[C@@H](C(=O)N[C@@H]2C(=O)N3[C@@H]2SC(C)(C)[C@@H]3C(=O)O)c2ccccc2)C(=O)C1=O", "note": "[PIPERACILLIN]", "values": [{"measurement": "MIC", "setting": "Acinetobacter baumannii [1]", "value": "> 128", "unit": "µg/mL"}]}
{"compound": "NC[C@H]1O[C@H](O[C@H]2[C@H](O)[C@@H](O[C@H]3O[C@H](CO)[C@@H](O)[C@H](N)[C@H]3O)[C@H](N)C[C@@H]2N)[C@H](N)C[C@@H]1O", "note": "[TOBRAMYCIN]", "values": [{"measurement": "MIC", "setting": "Acinetobacter baumannii [1]", "value": "> 32", "unit": "µg/mL"}]}
{"compound": "GENTAMICIN", "values": [{"measurement": "MIC", "setting": "Acinetobacter baumannii [1]", "value": "> 128", "unit": "µg/mL"}]}
